One data set is described as follows: solubility in water. The format is physicochemical. The conditions noted are these: 25 °C, constant stirring at 200 rpm, HPLC; for solubility: water, read-out: solubility in water (amounts of sample dissolved in 1 ml of water). An excerpt: The chromanol glycoside obtained in Examples 1 to 5 [6-hydroxy-2,5,7,8-tetramethyl chroman-2-methyl-α-D-glucopyranoside represented by the aforementioned formula (4)], the chromanol glycoside obtained in Examples 6 to 8 [6-hydroxy-2,5,7,8-tetramethyl chroman-2-ethyl-α-D-glucopyranoside represented by the aforementioned formula (7)], the chromanol glycoside obtained in Examples 4 and 5 [6-hydroxy-2,5,7,8-tetramethyl chroman-2-methyl-α-D-maltopyranoside represented by the aforementioned formula (5)], and the chromanol glycoside obtained in Example 8 [6-hydroxy-2,5,7,8-tetramethyl chroman-2-ethyl-α-D-maltopyranoside represented by the aforementioned formula (8)] were tested for solubility in water. Specifically, this test was performed by adding an excess amount of a given chromanol glycoside to 1 ml of water. The reaction mixture was incubated at 25° C. for […] with constant stirring at 200 rpm. After 100 hours, the reaction mixture was transferred into a membrane filter (produced by Nihon Millipore Ltd. and marketed under trademark designation of "HPLC Sample Prep C02-LG") and insoluble substances were removed by centrifugation (4,100×g, 10 minutes, 20° C.). The filtered solution was subjected to HPLC to determine the amount of chromanol glycoside remaining in the aqueous solution. For the purpose of comparison, the 2-substituted alcohols represented by the aforementioned formulas (3) and […] and Trolox were similarly tested.
The numerals given in the tables represent the amounts of sample dissolved in 1 ml of water.

Another data set can be described thus: pH stability. It is filed as physicochemical. The conditions noted are these: 5.5 mM, buffer/ethanol 5:1 v/v; for remaining at 100 h, 5500 µM: read-out: Residual amounts (%) after 100 hours; for Residual amounts (%) after 100 hours: 5500 µM. The text has this: The chromanol glycoside obtained in Examples 1 to 5 [6-hydroxy-2,5,7,8-tetramethyl chroman-2-methyl-α-D-glucopyranoside represented by the aforementioned formula (4)], the chromanol glycoside obtained in Examples 6 to 8 [6-hydroxy-2,5,7,8-tetramethyl chroman-2-ethyl-α-D-glucopyranoside represented by the aforementioned formula (7)], the chromanol glycoside obtained in Examples 4 and 5 [6-hydroxy-2,5,7,8-tetramethyl chroman-2-methyl-α-D-maltopyranoside represented by the aforementioned formula (5)], and the chromanol glycoside obtained in Example 8 [6 -hydroxy-2,5,7,8-tetramethyl chroman-2-ethyl-α-D-maltopyranoside represented by the aforementioned formula (8)] were tested for pH stability. This test was specifically performed by incubating a 5.5 mM chromanol glycoside solution (buffer/ethanol, 5:1 v/v) having a varying pH value. At regular intervals, aliquots of the reaction mixture were withdrawn and the residual amounts of chromanol glycoside were measured by HPC. For the purpose of comparison, the 2-substituted alcohols represented by the aforementioned formulas (3) and (6) and Trolox were similarly tested.
It is clearly noted from the test results that the conversion of 2-substituted alcohols into respective glycosides enhances pH stability. The buffer used for the test were 100 mM acetate buffer of pH 5.5, 100 mM phosphate buffer of pH 7.0, and 100 mM tris-HCl buffer of pH 8,5.

Data set [1] in a line: hydroperoxidation of methyl linoleate via radical chain reaction in hexane/isopropyl alcohol. The format is biochemical. The conditions noted are these: 0.1 μmol antioxidant in 1.1 ml hexane/isopropyl alcohol 1:1; 37 °C; oil-soluble radical generator; in words. An excerpt:
Antioxidant activity on the chromanol glycoside obtained in Examples 1 to 5 [6-hydroxy-2,5,7,8-tetramethyl chroman-2-methyl-α-D-glucopyranoside represented by the aforementioned formula (4)], the chromanol glycoside obtained in Examples 6 to 8 [6-hydroxy-2,5,7,8-tetramethyl chroman-2-ethyl-α-D-glucopyranoside represented by the aforementioned formula (7)], the chromanol glycoside obtained in Examples 4 and 5 [6-hydroxy-2,5,7,8-tetramethyl chroman-2-methyl-α-D-maltopyranoside represented by the aforementioned formula (5)], and the chromanol glycoside obtained in Example 8 [6-hydroxy-2,5,7,8-tetramethyl chroman-2-ethyl-α-D-maltopyranoside represented by the aforementioned formula (8)] was investigated by measuring the hydroperoxidation of methyl linoleate via radical chain reaction. Specifically, this test was performed by incubating 132 μmol of methyl linoleate, 16.5 μmol of an oil-soluble radical generator [2,2'-azo-bis(2,4-dimethyl valeronitrile)], 0.1 μmol of antioxidant in 1.1 ml of a hexane/isopropyl alcohol (1:1 v/v), and the mixture was incubated at 37° C. At regular intervals, aliquots of the reaction mixture were withdrawn and the amount of methyl linoleate hydroperoxides were measured by HPLC. […] EXAMPLE 10

The nature of data set [2]: antioxidant activity using liposomal membranes (phosphatidylcholine hydroperoxides). It is filed as biochemical. The conditions noted are these: 0.1 μmol antioxidant in 1.1 ml 10 mM tris-HCl buffer pH 7.4; water-soluble radical generator; in words. The text has this: Antioxidant activity on the chromanol glycoside obtained in Examples 1 to 5 [6-hydroxy-2,5,7,8-tetramethyl chroman-2-methyl-α-D-glucopyranoside represented by the aforementioned formula (4)[, the chromanol glycoside obtained in Examples 6 to 8 [6-hydroxy-2,5,7,8-tetramethyl chroman-2-ethyl-α-D-glucopyranoside represented by the aforementioned formula (7)], the chromanol glycoside obtained in Examples 4 and 5 [6-hydroxy-2,5,7,8-tetramethyl chroman-2-methyl-α-D-maltopyranoside represented by the aforementioned formula (5)], and the chromanol glycoside obtained in Example 8 [6-hydroxy-2,5,7,8-tetramethyl chroman-2-ethyl-α-D-malto-pyranoside represented by the aforementioned formula (8)] was investigated by using a liposonal membranes. Specifically, this test was performed by adjusting a reaction solution consisting of 5.5 μmol of a multilameller liposomes of egg yolk phosphatidylcholine, 16.5 μmol of a water-soluble radical generator [2,2'-azo-bis(2-amidinopropane) dihydrochloride], and 0.1 μmol of antioxidant in 1.1 ml of a 10 mM tris-HCl buffer (pH 7.4). At regular intervals, aliquots of the reaction mixture were withdrawn and the amount of phosphatidylcholine hydroperoxides were measured by HPLC.

The mark [3] stands for this setting: acetate buffer/ethanol 5:1, pH 5.5, pH 5.5 (100 mM acetate buffer).
[4] abbreviates: phosphate buffer/ethanol 5:1, pH 7, pH 7.0 (100 mM phosphate buffer).
[5] abbreviates: tris-hcl buffer/ethanol 5:1, pH 8.5, pH 8.5 (100 mM tris-HCl buffer).

Structures are written as SMILES. Where two headings read alike, the source gives them in different places.

One may read the solubility as the dissolved amount per volume that the medium holds.

As for `Cc1c(C)c2c(c(C)c1O)CCC(C)(CCO)O2` (racemic) [formula (6), reference compound], the solubility in the data set “solubility in water” amounted to 0.1 mg/mL. The remaining at 100 h, 5500 µM in the data set “pH stability” (setting [3]) amounted to 63%; in “pH stability” (setting [4]), 19%; in “pH stability” (setting [5]), 3%.

For `Cc1c(C)c2c(c(C)c1O)CCC(C)(CCO[C@H]1O[C@H](CO)[C@@H](O[C@H]3O[C@H](CO)[C@@H](O)[C@H](O)[C@H]3O)[C@H](O)[C@H]1O)O2` (stereo partly drawn) [formula (8), 6-hydroxy-2,5,7,8-tetramethyl chroman-2-ethyl-α-D-maltopyranoside], the “antioxidant activity (methyl linoleate hydroperoxides)” value in data set [1] was “excel 3,5-tert-butyl-4-hydroxytoluene and equal α-tocopherol”. Further, the solubility in the data set “solubility in water” amounted to 141 mg/mL. Moreover, the “antioxidant activity (phosphatidylcholine hydroperoxides)” value in data set [2] is on record as “more effective antioxidants than ascorbic acid”. For the same compound, the remaining at 100 h, 5500 µM in the data set “pH stability” (setting [3]) came out at 57%; in the data set “pH stability” (setting [4]), 16%; in “pH stability” (setting [5]) it was 2%.

For `Cc1c(C)c2c(c(C)c1O)CCC(C)(CO[C@H]1O[C@H](CO)[C@@H](O[C@H]3O[C@H](CO)[C@@H](O)[C@H](O)[C@H]3O)[C@H](O)[C@H]1O)O2` (stereo partly drawn) [formula (5), 6-hydroxy-2,5,7,8-tetramethyl chroman-2-methyl-α-D-maltopyranoside], the “antioxidant activity (methyl linoleate hydroperoxides)” value in data set [1] is “excel 3,5-tert-butyl-4-hydroxytoluene and equal α-tocopherol”. For the same compound, the “antioxidant activity (phosphatidylcholine hydroperoxides)” value in data set [2] is listed as “more effective antioxidants than ascorbic acid”. Besides, the figures for the remaining at 100 h, 5500 µM in “pH stability” (setting [3]), in “pH stability” (setting [4]) and in “pH stability” (setting [5]) were 84%, 40% and 19%, respectively. For the same compound, the “Residual amounts (%) after 100 hours” value in the data set “pH stability” (pH 5.5 (100 mM acetate buffer), listed as formula (5) of Example 5, 6000 min) came out at 86%; in “pH stability” (pH 7.0 (100 mM phosphate buffer), listed as formula (5) of Example 5, 6000 min), 44%; in “pH stability” (pH 8.5 (100 mM tris-HCl buffer), listed as formula (5) of Example 5, 6000 min) it was 20%.

`Cc1c(C)c2c(c(C)c1O)CCC(C)(CCO[C@H]1O[C@H](CO)[C@@H](O)[C@H](O)[C@H]1O)O2` (stereo partly drawn) [formula (7), 6-hydroxy-2,5,7,8-tetramethyl chroman-2-ethyl-α-D-glucopyranoside]: in data set [1], the “antioxidant activity (methyl linoleate hydroperoxides)” value is “excel 3,5-tert-butyl-4-hydroxytoluene and equal α-tocopherol”. The “solubility in water (amounts of sample dissolved in 1 ml of water)” value in the data set “solubility in water” (listed as formula (7) of Example 7) and in “solubility in water” (listed as formula (7) of Example 8) was 45 mg/mL each time. For the same compound, in “solubility in water”, the solubility worked out at 33 mg/mL. In addition, in data set [2], the “antioxidant activity (phosphatidylcholine hydroperoxides)” value is “more effective antioxidants than ascorbic acid”. The figures for the remaining at 100 h, 5500 µM in “pH stability” (setting [3]), in “pH stability” (setting [4]) and in the data set “pH stability” (setting [5]) were 69%, 24% and 7%, respectively. The “Residual amounts (%) after 100 hours” value in “pH stability” (pH 5.5 (100 mM acetate buffer), listed as formula (7) of Example 7, 6000 min) was 71%; in the data set “pH stability” (pH 5.5 (100 mM acetate buffer), listed as formula (7) of Example 8, 6000 min), 70%; in the data set “pH stability” (pH 7.0 (100 mM phosphate buffer), listed as formula (7) of Example 7, 6000 min), 26%; in the data set “pH stability” (pH 7.0 (100 mM phosphate buffer), listed as formula (7) of Example 8, 6000 min) it was 25%; in the data set “pH stability” (pH 8.5 (100 mM tris-HCl buffer), listed as formula (7) of Example 8, 6000 min), 8%.

As for `Cc1c(C)c2c(c(C)c1O)CCC(C)(CO)O2` (racemic) [formula (3), reference compound], the solubility in “solubility in water” came out at 1 mg/mL. The remaining at 100 h, 5500 µM came out at 73% in the data set “pH stability” (setting [3]), 29% in the data set “pH stability” (setting [4]) and 7% in “pH stability” (setting [5]).
